Experimental data reported in article PMC10885153, “Membrane Permeability in a Large Macrocyclic Peptide Driven by a Saddle-Shaped Conformation” (Journal of the American Chemical Society, 2024).
Values after ≈ are worked out from the molar mass of the structure shown. Positions of bridges follow the written chain, without caps; N, C: chain ends. Non-standard residues stand in square brackets, D forms with d. Residues, ends and D or L forms follow the SMILES beside them. Cha = N[C@@H](CC1CCCCC1)C(=O)O; NMeNva = CCC[C@H](NC)C(=O)O; NMeAbu = CC[C@H](NC)C(=O)O; NMeC = CN[C@@H](CS)C(=O)O; NMeA = CN[C@@H](C)C(=O)O; Nva = CCC[C@H](N)C(=O)O; Abu = CC[C@H](N)C(=O)O; NPrGly = CCCNCC(=O)O; NEtG = CCNCC(=O)O

Columns and labels:
[1] = 10 µM, pH 7.4
Experimental: (§1) assay was carried out with a 96-well donor plate with 0.45 μ hydrophobic Immobilon-P membrane supports
(§2) (Millipore MAIPNTR10) and a 96-well Teflon acceptor plate (Millipore MSSACCEPTOR). The PAMPA
protocol then proceeded as follows:
(§3) Donor well solutions were prepared to a volume of 1 000 µL with the analytes as a solution in 1X
(§4) PBS pH 7.4 and 5% DMSO. To a 3 mL Eppendorf tube was added 950 µL of 1X PBS pH 7.4, 40
Analyte – 10 µM per compound
(§5) sonicated (5 min) to ensure full dissolution of the lecithin. The donor membrane plate was turned
(§6) upside down and bottom of the membranes exposed. 5 µL of the 1% soy lecithin solution in
(§7) dodecane was then placed on the bottom of the membrane, allowing the drop to spread across the
(§8) full area of the membrane. Any membranes with visible damage were not used in the assay. The
(§9) membranes were allowed to equilibrate for 5 min before loading.
(§10) 3. Each well within the Teflon block acceptor plate that was to be used in the assay was then loaded
(§11) with 300 µL of 1X PBS pH 7.4 and 5% DMSO.
(§12) Working without break, 150 µL of each donor well solution was transferred from the to the 96-well
(§13) donor plate. Each mixture of interest was r un in quadruplicate, using a new well for each replicate.
(§14) As soon as the 96-well donor plate was finished being loaded, it was gently placed into the 96-well
(§15) Teflon acceptor plate, taking care not to trap any air bubbles beneath the membrane.
(§16) The donor/acceptor plates were covered gently with the lid to minimize evaporation and transferred
(§17) gently as a system to a sealed chamber and left to sit overnight at room temperature. The chamber
(§18) was kept from drying by placing a wet paper towel within to prevent evaporation.
(§19) After ~19-20 hours the donor plate was removed from the acceptor plate.
(§20) 50 µL of each well (donor and acceptor) were transferred to a 96 -well plate and diluted with 50 µL
(§21) of methanol prior to heat sealing and quantification by UPLC -MS.

[2] = PAMPA, 10 µM, pH 7.4
Experimental: (§22) Passive permeabilities of the 36 compounds were measured in multiplex as mixtures of six compounds each using the parallel artificial membrane permeability assay (PAMPA).[44]−[46]
(§23) Protocol is identical for both mixture and pure compound analysis.
(§24) Two of the following: Carbamazepine (CBZ), propranolol (Prop), and 1NMe35 were
(§25) included as internal standards and prepared as DMSO stocks at a concentration of 2 000 µM.
as §1
(§26) (Millipore MAIPNTR10) and a 96-well Teflon acceptor plate (Millipore MSSACCEPTOR).
protocol then proceeded as follows:
as §3, §4
(§27) The solutions were vortexed and set aside.
Analyte – 10 µM per compound
(§28) A 1% solution of soy lecithin in dodecane was freshly prepared in a 3 mL Eppendorf tube and
as §5, §6, §7
(§29) full area of the membrane. Any membranes with visible damage were not used in the assay.
as §9
(§30) Each well within the Teflon block acceptor plate that was to be used in the assay was then loaded
as §11, §12, §13, §14, §15, §16, §17, §18, §19, §20, §21

in vitro [3] = details: dog, pH 7.4
in vitro [4] = details: PAMPA, pH 7.4, Permeability (Papp) PAMPA (indiv.)
Experimental: as §1, §2
protocol then proceeded as follows:
as §3, §4
Analyte – 10 µM per compound
as §5, §6, §7, §8, §9, §10, §11, §12, §13, §14, §15, §16, §17, §18, §19, §20, §21

in vitro [5] = details: PAMPA, pH 7.4, Permeability (Papp) PAMPA (mixture)
Experimental: as §22, §23, §24, §25, §1, §26
protocol then proceeded as follows:
as §3, §4, §27
Analyte – 10 µM per compound
as §28, §5, §6, §7, §29, §9, §30, §11, §12, §13, §14, §15, §16, §17, §18, §19, §20, §21

[6] = system: Mdr1 knockout Madin–Darby canine kidney (MDCK) cells; details: dog, MDCK, 3 h, 10 µM, pH 7.4
[7] = pH 7.4, kinetic from dmso stock
[8] = pH 7.4, aqueous with cosolvent or surfactant or cyclodextrin, kinetic from dmso stock
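Wherever PAMPA Papp avg is given: artificial membrane of 1% soy lecithin in dodecane on a filter plate, donor and acceptor buffer PBS pH 7.4 with 5% DMSO, incubated overnight at room temperature.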

Experimental for physchem: Kinetic Solubility PBS Protocol
4 µL of 10 mM compound in DMSO stock was added to 196 µL 1 X PBS pH 7.4 in a 96 -well microplate to
get a final concentration of 200 µM to shake for 24 hours at 1000 rpm. The sample was filtered sample
using a 96-Multiscreen HTS filter plate (Millipore MSSL BPC50) and a positive pressure manifold.

Row | PAMPA Papp_avg [1] | solubility kinetic at 24 h (physchem; [7]) | %R_avg [2] | Papp A→B at 3 h, 10 µM (in vitro [3]; MDCK) | Papp at 3 h, 10 µM (in vitro [3]; MDCK) | Papp at 10 µM (in vitro [4]) | Papp at 10 µM (in vitro [5]) | solubility kinetic at 24 h (physchem; [8]) | Papp A→B at 3 h, 10 µM (in vitro [3]) | MDCK Papp_avg [6] | SMILES
1 | 4.1e-06 cm/s | 200 µM (≈ 196 µg/mL) | 17.1% | 4.5 ×10⁻⁶ cm/s | 4.5 ×10⁻⁶ cm/s | 4.1 ×10⁻⁶ cm/s |  |  |  |  | CCOC(=O)[C@@H]1CSCC(=O)N[C@@H](CC(C)C)C(=O)N(C)[C@@H](C)C(=O)N[C@@H](CC(C)C)C(=O)N2CCC[C@@H]2C(=O)N(CC)CC(=O)N[C@@H](CC)C(=O)N(C)[C@@H](C)C(=O)N[C@@H](CC(C)C)C(=O)N1C [LA02, O=C(N(C)[C@H](C(OCC)=O)CSCC(N[C@H](C(N(C)[C@@H](C)C(N[C@@H](CC(C)C)C(N1[C@H](CCC1)C(N(CC)CC(N[C@H]2CC)=O)=O)=O)=O)=O)CC(C)C)=O)[C@H](CC(C)C)NC([C@H](C)N(C)C2=O)=O] ({CH2CO}-L[NMeA]L[dP][NEtG][Abu][NMeA]L[NMeC]-OEt; thioether N-9)
2 |  |  | 51.1% | 1.8 ×10⁻⁶ cm/s |  | 1.1 ×10⁻⁶ cm/s | 1 ×10⁻⁶ cm/s | 126 µM (≈ 124 µg/mL) | 1.77 ×10⁻⁶ cm/s |  | CCOC(=O)[C@@H]1CSCC(=O)N[C@@H](CC(C)C)C(=O)N(CC)CC(=O)N[C@@H](CC(C)C)C(=O)N2CCC[C@@H]2C(=O)N(C)[C@@H](C)C(=O)N[C@@H](CC)C(=O)N(C)[C@@H](C)C(=O)N[C@@H](CC(C)C)C(=O)N1C [LB02, O=C(N(C)[C@H](C(OCC)=O)CSCC(N[C@H](C1=O)CC(C)C)=O)[C@H](CC(C)C)NC([C@H](C)N(C)C([C@H](CC)NC([C@H](C)N(C)C([C@@H]2N(C([C@H](CC(C)C)NC(CN1CC)=O)=O)CCC2)=O)=O)=O)=O] ({CH2CO}-L[NEtG]L[dP][NMeA][Abu][NMeA]L[NMeC]-OEt; thioether N-9)
3 |  |  | 35.8% | 2.6 ×10⁻⁶ cm/s |  |  |  | 105 µM (≈ 104 µg/mL) |  | 2.6e-06 cm/s | CCCN1CC(=O)N[C@@H](CC(C)C)C(=O)N2CCC[C@@H]2C(=O)N(C)[C@@H](C)C(=O)N[C@@H](CC)C(=O)N(C)[C@@H](C)C(=O)N[C@@H](CC(C)C)C(=O)N(C)[C@H](C(=O)OCC)CSCC(=O)N[C@@H](CC(C)C)C1=O [LB04, O=C(N(C)[C@H](C(OCC)=O)CSCC(N[C@H](C1=O)CC(C)C)=O)[C@H](CC(C)C)NC([C@H](C)N(C)C([C@H](CC)NC([C@H](C)N(C)C([C@@H]2N(C([C@H](CC(C)C)NC(CN1CCC)=O)=O)CCC2)=O)=O)=O)=O] ({CH2CO}-L[NPrGly]L[dP][NMeA][Abu][NMeA]L[NMeC]-OEt; thioether N-9)

Second part, the compound before the results:

Row | SMILES | PAMPA Papp_avg [1] | solubility kinetic at 24 h (physchem; [7]) | %R_avg [2] | Papp A→B at 3 h, 10 µM (in vitro [3]; MDCK) | Papp at 3 h, 10 µM (in vitro [3]; MDCK) | Papp at 10 µM (in vitro [4]) | Papp at 10 µM (in vitro [5]) | solubility kinetic at 24 h (physchem; [8]) | Papp A→B at 3 h, 10 µM (in vitro [3]) | MDCK Papp_avg [6]
4 | CCCN1CC(=O)N[C@@H](CC)C(=O)N(C)[C@@H](C)C(=O)N[C@@H](CC(C)C)C(=O)N(C)[C@H](C(=O)OCC)CSCC(=O)N[C@@H](CC(C)C)C(=O)N(C)[C@@H](C)C(=O)N[C@@H](CC(C)C)C(=O)N2CCC[C@@H]2C1=O [LA04, O=C(N(C)[C@H](C(OCC)=O)CSCC(N[C@H](C(N(C)[C@@H](C)C(N[C@@H](CC(C)C)C(N1[C@H](CCC1)C(N(CCC)CC(N[C@H]2CC)=O)=O)=O)=O)=O)CC(C)C)=O)[C@H](CC(C)C)NC([C@H](C)N(C)C2=O)=O] ({CH2CO}-L[NMeA]L[dP][NPrGly][Abu][NMeA]L[NMeC]-OEt; thioether N-9) | 3.86e-06 cm/s | 200 µM (≈ 199 µg/mL) | 8.2% | 4 ×10⁻⁶ cm/s |  | 3.9 ×10⁻⁶ cm/s | 4 ×10⁻⁶ cm/s |  |  | 
5 | CCC[C@H]1C(=O)N[C@@H](CC)C(=O)N(C)[C@@H](C)C(=O)N[C@@H](CC(C)C)C(=O)N(C)[C@H](C(=O)OCC)CSCC(=O)N[C@@H](CC(C)C)C(=O)N(C)[C@@H](C)C(=O)N[C@@H](CC(C)C)C(=O)N2CCC[C@@H]2C(=O)N1C [LC04, O=C(N(C)[C@H](C(OCC)=O)CSCC(N[C@H](C(N(C)[C@@H](C)C(N[C@@H](CC(C)C)C(N1[C@H](CCC1)C(N(C)[C@@H](CCC)C(N[C@H]2CC)=O)=O)=O)=O)=O)CC(C)C)=O)[C@H](CC(C)C)NC([C@H](C)N(C)C2=O)=O] ({CH2CO}-L[NMeA]L[dP][NMeNva][Abu][NMeA]L[NMeC]-OEt; thioether N-9) | 3.3e-06 cm/s |  | 11.2% | 6.5 ×10⁻⁶ cm/s |  | 3.3 ×10⁻⁶ cm/s |  | 183 µM (≈ 185 µg/mL) |  | 
6 | CCC[C@@H]1NC(=O)[C@H](C)N(C)C(=O)[C@H](CC(C)C)NC(=O)CSC[C@@H](C(=O)OCC)N(C)C(=O)[C@H](CC(C)C)NC(=O)[C@H](C)N(C)C(=O)[C@H](CC2CCCCC2)NC(=O)[C@H](CC)N(C)C(=O)[C@H]2CCCN2C1=O [LC09, O=C(N(C)[C@H](C(OCC)=O)CSCC(N[C@H](C(N(C)[C@@H](C)C(N[C@@H](CCC)C(N1[C@H](CCC1)C(N(C)[C@@H](CC)C(N[C@H]2CC3CCCCC3)=O)=O)=O)=O)=O)CC(C)C)=O)[C@H](CC(C)C)NC([C@H](C)N(C)C2=O)=O] ({CH2CO}-L[NMeA][Nva][dP][NMeAbu][Cha][NMeA]L[NMeC]-OEt; thioether N-9) |  |  | 6.1% | 1.8 ×10⁻⁶ cm/s |  | 0.3 ×10⁻⁶ cm/s |  | 10 µM (≈ 10.5 µg/mL) |  | 1.8e-06 cm/s
